Assay results from patent US12139499B2, “Heteroaryl compounds for treating Huntington's disease” (PTC THERAPEUTICS, INC., priority 2018, dated 2024).

System: Endogenous Huntingtin Protein
Test: Endogenous Huntingtin Protein Assay (ELISA-based MSD electrochemiluminescence)
Format: cell-based
Conditions: Table 1
How it was run: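 Huntingtin was captured overnight at 4 °C on plates coated with 1 μg/mL MW1 (polyQ-expanded) or MAB2166 antibody and BSA-blocked. Detection used a rabbit monoclonal and then a SULFO-TAG goat anti-rabbit antibody (0.25 μg/mL, 1 h each, room temperature). Signal was read by electrochemiluminescence.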

Structure (SMILES)	IC50 [nM]
CN1CC(N(C)c2nc3nnc(-c4ccc(-c5cn[nH]c5)cc4O)cc3s2)C1 [Compound 343, 2-{6-[methyl(1-methylazetidin-3-yl)amino][1,3]thiazolo[4,5-c]pyridazin-3-yl}-5-(1H-pyrazol-4-yl)phenol]	100 to 500
CN[C@H]1CC[C@@H](N(C)c2nc3nnc(-c4ccc(-c5cn[nH]c5)cc4O)cc3s2)CC1 [Compound 345, 2-(6-{methyl[(1s,4s)-4-(methylamino)cyclohexyl]amino}[1,3]thiazolo[4,5-c]pyridazin-3-yl)-5-(1H-pyrazol-4-yl)phenol]	100 to 500
CN1CCC(N(C)c2nc3nnc(-c4ccc(-c5cn[nH]c5)cc4O)cc3s2)C1 (centres unmarked) [Compound 375, 2-{6-[methyl(1-methylpyrrolidin-3-yl)amino][1,3]thiazolo[4,5-c]pyridazin-3-yl}-5-(1H-pyrazol-4-yl)phenol]	≤ 100
Cc1nc2c(C)cc(-c3cc(F)c4nc([C@H]5C[C@@H](C)N[C@@H](C)C5)sc4c3)nc2o1 [Compound 359, 5-{2-[(2R,4r,6S)-2,6-dimethylpiperidin-4-yl]-4-fluoro-1,3-benzothiazol-6-yl}-2,7-dimethyl[1,3]oxazolo[5,4-b]pyridine]	≤ 100
CN(c1nc2cnc(-c3cc(F)c4nn(C)cc4c3)cc2s1)C1CC(C)(C)NC(C)(C)C1 [Compound 86, 6-(7-fluoro-2-methyl-2H-indazol-5-yl)-N-methyl-N-(2,2,6,6-tetramethylpiperidin-4-yl)[1,3]thiazolo[4,5-c]pyridin-2-amine]	≤ 100
Cc1cn2nc(-c3ccc4nc(C5CCNCC5)sc4c3)ccc2n1 [Compound 97, 2-methyl-6-[2-(piperidin-4-yl)-1,3-benzothiazol-6-yl]imidazo[1,2-b]pyridazine]	≤ 100
CN(c1nc2ccc(-c3cc(F)c4nn(C)cc4c3)cc2s1)C1CC(C)(C)NC(C)(C)C1 [Compound 57, 6-(7-fluoro-2-methyl-2H-indazol-5-yl)-N-methyl-N-(2,2,6,6-tetramethylpiperidin-4-yl)-1,3-benzothiazol-2-amine]	≤ 100
Cc1cn2cc(-c3cc4sc(N(C)C5CC6CCCC(C5)N6)nc4cn3)ccc2n1 (centres unmarked) [Compound 260, N-(9-azabicyclo[3.3.1]non-3-yl)-N-methyl-6-(2-methylimidazo[1,2-a]pyridin-6-yl)[1,3]thiazolo[4,5-c]pyridin-2-amine]	≤ 100
CN(c1nc2ccc(-c3ccc4nn(C)cc4c3)cc2s1)C1CCNC1 (centres unmarked) [Compound 38, N-methyl-6-(2-methyl-2H-indazol-5-yl)-N-(pyrrolidin-3-yl)-1,3-benzothiazol-2-amine]	1000 to 3000
CN(c1nc2nnc(-c3ccc(-c4cn[nH]c4)cc3O)cc2s1)[C@H]1CCCNC1 [Compound 349, 2-(6-{methyl[(3S)-piperidin-3-yl]amino}[1,3]thiazolo[4,5-c]pyridazin-3-yl)-5-(1H-pyrazol-4-yl)phenol]	≤ 100
Cc1cn2cc(-c3ccc4nc(C5CCNCC5)sc4c3)cnc2n1 [Compound 156, 2-methyl-6-[2-(piperidin-4-yl)-1,3-benzothiazol-6-yl]imidazo[1,2-a]pyrimidine]	1000 to 3000
Cc1cn2nc(-c3cc(F)c4nc(N(C)C5CC(C)(C)NC(C)(C)C5)sc4c3)cc(C)c2n1 [Compound 127, 6-(2,8-dimethylimidazo[1,2-b]pyridazin-6-yl)-4-fluoro-N-methyl-N-(2,2,6,6-tetramethylpiperidin-4-yl)-1,3-benzothiazol-2-amine]	≤ 100
CN(c1nc2nnc(-c3ccc(-c4cn[nH]c4)cc3O)cc2s1)C1CC(C)(C)NC(C)(C)C1 [Compound 119, 2-{6-[methyl(2,2,6,6-tetramethylpiperidin-4-yl)amino][1,3]thiazolo[4,5-c]pyridazin-3-yl}-5-(1H-pyrazol-4-yl)phenol]	≤ 100
Cn1cc2cc(-c3cc4sc(C5CCNCC5)nc4cn3)cc(F)c2n1 [Compound 76, 6-(7-fluoro-2-methyl-2H-indazol-5-yl)-2-(piperidin-4-yl)[1,3]thiazolo[4,5-c]pyridine]	100 to 500
Cc1cn2nc(-c3cc(F)c4nc(N5CCNCC5)sc4c3)cc(C)c2n1 [Compound 120, 6-[4-fluoro-2-(piperazin-1-yl)-1,3-benzothiazol-6-yl]-2,8-dimethylimidazo[1,2-b]pyridazine]	≤ 100
COc1cc(-c2cc(F)c3nc(N(C)C4CCNCC4)sc3c2)nn2cc(C)nc12 [Compound 202, 4-fluoro-6-(8-methoxy-2-methylimidazo[1,2-b]pyridazin-6-yl)-N-methyl-N-(piperidin-4-yl)-1,3-benzothiazol-2-amine]	≤ 100
CN1[C@@H]2CC[C@H]1C[C@H](Nc1nc3cnc(-c4cc(C#N)c5nn(C)cc5c4)cc3s1)C2 [Compound 244, 2-methyl-5-(2-{[(3-exo)-8-methyl-8-azabicyclo[3.2.1]oct-3-yl]amino][1,3]thiazolo[4,5-c]pyridin-6-yl)-2H-indazole-7-carbonitrile]	1000 to 3000
Cc1cn2nc(-c3cc(F)c4nc(C5CCN(C)CC5)sc4c3)ccc2n1 [Compound 92, 6-[4-fluoro-2-(1-methylpiperidin-4-yl)-1,3-benzothiazol-6-yl]-2-methylimidazo[1,2-b]pyridazine]	≤ 100

Structure (SMILES)	IC50 [nM]
CN(c1nc2nnc(-c3ccc(-c4cn[nH]c4)cc3O)cc2s1)C1CNC1 [Compound 353, 2-{6-[(azetidin-3-yl)(methyl)amino][1,3]thiazolo[4,5-c]pyridazin-3-yl}-5-(1H-pyrazol-4-yl)phenol]	100 to 500
Cc1cn2nc(-c3ccc4nc(N(C)C5CC(C)(C)NC(C)(C)C5)sc4c3)ccc2n1 [Compound 40, N-methyl-6-(2-methylimidazo[1,2-b]pyridazin-6-yl)-N-(2,2,6,6-tetramethylpiperidin-4-yl)-1,3-benzothiazol-2-amine]	≤ 100
Cc1cc(-c2ccc3nc(N(C)C4CC(C)NC(C)C4)sc3c2)cc2cn(C)nc12 (centres unmarked) [Compound 175, 6-(2,7-dimethyl-2H-indazol-5-yl)-N-(2,6-dimethylpiperidin-4-yl)-N-methyl-1,3-benzothiazol-2-amine]	≤ 100
Cc1cn2cc(-c3cc4sc(N(C)C5CCNCC5)nc4cn3)cc(C#N)c2n1 [Compound 198, 2-methyl-6-{2-[methyl(piperidin-4-yl)amino][1,3]thiazolo[4,5-c]pyridin-6-yl}imidazo[1,2-a]pyridine-8-carbonitrile]	≤ 100
Cc1cc2nc(-c3cc(F)c4nc(C5CCNCC5)sc4c3)ccn2n1 [Compound 249, 5-[4-fluoro-2-(piperidin-4-yl)-1,3-benzothiazol-6-yl]-2-methylpyrazolo[1,5-a]pyrimidine]	≤ 100
COc1cc(-c2cc(F)c3nc(C4CCNCC4)sc3c2)nn2cc(C)nc12 [Compound 151, 6-[4-fluoro-2-(piperidin-4-yl)-1,3-benzothiazol-6-yl]-8-methoxy-2-methylimidazo[1,2-b]pyridazine]	≤ 100
CN1CC[C@H]2CN(c3nc4nnc(-c5ccc(-c6cn[nH]c6)cc5O)cc4s3)[C@H]2C1 [Compound 390, 2-{6-[(1R,6S)-3-methyl-3,8-diazabicyclo[4.2.0]octan-8-yl][1,3]thiazolo[4,5-c]pyridazin-3-yl}-5-(1H-pyrazol-4-yl)phenol]	≤ 100
Cc1cn2cc(-c3ccc4nc(N(C)C5CC6CCCC(C5)N6)sc4n3)cc(F)c2n1 (stereo not drawn) [Compound 280, N-[(3-exo)-9-azabicyclo[3.3.1]non-3-yl]-5-(8-fluoro-2-methylimidazo[1,2-a]pyridin-6-yl)-N-methyl[1,3]thiazolo[5,4-b]pyridin-2-amine]	≤ 100
Cc1cn2nc(-c3cc(F)c4nc(C5CCNCC5)sc4c3)cc(OCc3ccccc3)c2n1 [Compound 187, 8-(benzyloxy)-6-[4-fluoro-2-(piperidin-4-yl)-1,3-benzothiazol-6-yl]-2-methylimidazo[1,2-b]pyridazine]	≤ 100
Cc1cn2nc(-c3cc(F)c4nc(N(C)C5CNC5)sc4c3)cc(C)c2n1 [Compound 248, N-(azetidin-3-yl)-6-(2,8-dimethylimidazo[1,2-b]pyridazin-6-yl)-4-fluoro-N-methyl-1,3-benzothiazol-2-amine]	100 to 500
CN(c1nc2ncc(-c3cc(F)c4nn(C)cc4c3)nc2s1)C1CC(C)(C)NC(C)(C)C1 [Compound 150, 6-(7-fluoro-2-methyl-2H-indazol-5-yl)-N-methyl-N-(2,2,6,6-tetramethylpiperidin-4-yl)[1,3]thiazolo[4,5-b]pyrazin-2-amine]	≤ 100
COC(=O)Cc1cc(-c2cc(F)c3nc(C4CCNCC4)sc3c2)nn2cc(C)nc12 [Compound 220, methyl {6-[4-fluoro-2-(piperidin-4-yl)-1,3-benzothiazol-6-yl]-2-methylimidazo[1,2-b]pyridazin-8-yl}acetate]	≤ 100
CN1C(C)(C)CC(Nc2nc3cnc(-c4cc(F)c5nn(C)cc5c4)cc3s2)CC1(C)C [Compound 269, 6-(7-fluoro-2-methyl-2H-indazol-5-yl)-N-(1,2,2,6,6-pentamethylpiperidin-4-yl)[1,3]thiazolo[4,5-c]pyridin-2-amine]	100 to 500
CN(c1nc2ccc(-c3ccc4nn(C)cc4c3)cc2s1)C1CCNCC1 [Compound 8, N-methyl-6-(2-methyl-2H-indazol-5-yl)-N-(piperidin-4-yl)-1,3-benzothiazol-2-amine]	100 to 500
Cc1nc2c(C#N)cc(-c3cc4sc(N(C)C5CC6(C)CCC(C)(C5)N6)nc4cn3)cc2o1 [Compound 301, 6-(2-{[(1R,3s,5S)-1,5-dimethyl-8-azabicyclo[3.2.1]octan-3-yl](methyl)amino)[1,3]thiazolo[4,5-c]pyridin-6-yl)-2-methyl-1,3-benzoxazole-4-carbonitrile]	≤ 100
Cc1cc(-c2ncc3nc(N(C)C4CC(C)(C)NC(C)(C)C4)sc3n2)cc2cn(C)nc12 [Compound 122, 5-(2,7-dimethyl-2H-indazol-5-yl)-N-methyl-N-(2,2,6,6-tetramethylpiperidin-4-yl)[1,3]thiazolo[5,4-d]pyrimidin-2-amine]	100 to 500
CN(c1nc2ccc(-c3cc(F)c4nn(C)cc4c3)nc2s1)C1CC2CCCC(C1)N2 (centres unmarked) [Compound 295, N-(9-azabicyclo[3.3.1]nonan-3-yl)-5-(7-fluoro-2-methyl-2H-indazol-5-yl)-N-methyl[1,3]thiazolo[5,4-b]pyridin-2-amine]	100 to 500
